Laboratory results reported in US8673910B2, “Proteasome inhibitors for selectively inducing apoptosis in cancer cells” (H. Lee Moffitt Cancer Center and Research Institute, priority 2008, dated 2014).
“And” between values parts separate entries of the source, which are not always exact repeats. Equal entries are not always repeated.

Tests used:
[1] = target: T1, trypsin-like (T-L) activity of purified 20S rabbit proteasome (Oryctolagus cuniculus, UniProt G1SWK8); test: Proteolytic activity of purified 20S proteasome, fluorogenic substrate Bz-Val-Gly-Arg-AMC; assay type: biochemical; details: Table 4: means of 3 experiments ± standard error, read-out: IC50 for T-L activity in vitro
T1 construct: purchased Boston Biochem
T1 sequence (G1SWK8 1-271): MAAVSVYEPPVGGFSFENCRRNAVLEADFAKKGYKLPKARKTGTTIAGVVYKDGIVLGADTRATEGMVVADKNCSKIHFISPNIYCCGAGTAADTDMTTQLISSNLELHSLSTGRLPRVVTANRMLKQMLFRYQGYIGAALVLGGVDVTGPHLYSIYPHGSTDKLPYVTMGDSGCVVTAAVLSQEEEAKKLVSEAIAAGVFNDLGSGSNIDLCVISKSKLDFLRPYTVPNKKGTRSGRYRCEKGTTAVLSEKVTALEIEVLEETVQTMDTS
Experimental: In the high-throughput screen, the inventors used fluorogenic peptides as substrates to assay 3,229 compounds of the NCI Diversity, Natural Product, Challenge and Mechanistic Sets for inhibitory activity against the proteolytic activities of the purified 20S proteasome, resulting in the identification of PI-083. […] After incubation, production of hydrolyzed 7-amido-4-methyl-coumarin (AMC) groups was measured using a WALLAC Victor^2 1420 Multilabel Counter with an excitation filter of 355 nm and an emission filter of 460 nm (Perkin Elmer Life Sciences, Turku, Finland).

[2] = target: T2, CT-L activity of the proteasome in MCF-7 human breast cancer cells (Homo sapiens, UniProt P20618+P28074); test: Proteolytic activity in cell lysates of treated intact MCF-7 cells; assay type: cell-based; details: intact cells treated 16 h, CT-L measured in cell lysates; two determinations where two values
T2 construct: endogenous in cells; host or cells: MCF-7
Experimental: Human MCF-7 breast cancer cells were cultured in DMEM medium containing 10% fetal calf serum (FCS) and 100 units/ml of penicillin and 100 μg/ml of streptomycin. Cells were maintained at 37° C. in a humidified incubator in an atmosphere of 5% CO2. Cells were treated with different concentrations of PI-083, YG1-080, YG1-075, HL2-090-2, HL2-090-4, HL2-090-6, and HL2-090-9 or vehicle control (DMSO) for 16 h.
Intact cells were treated with compounds and lysates prepared as described above. Cell lysates (5 μg) was incubated with 20 μM Suc-Leu-Leu-Val-Tyr-AMC for the CT-L activity for 1 h at 37° C. in 100 μl of assay buffer (50 mM Tris-HCl, pH 7.6). After incubation, production of hydrolyzed 7-amido-4-methyl-coumarin (AMC) groups was measured using a WALLAC Victor^2 1420 Multilabel Counter with an excitation filter of 355 nm and an emission filter of 460 nm (Perkin Elmer Life Sciences, Turku, Finland).

Compound | IC50 [1] [µM] | IC50 [2]
CC(C)C[C@H](NC(=O)[C@H](Cc1ccccc1)NC(=O)c1cnccn1)B(O)O [Bortezomib, reference compound] | 7.02 | –
O=C1C(Cl)=C(Nc2ccc(S(=O)(=O)Nc3ccccn3)cc2)C(=O)c2ccccc21 [PI-083, 4-(3-chloro-1,4-dioxo-1,4-dihydronaphthalen-2-ylamino)-N-(pyridin-2-yl)benzenesulfonamide] | – | 6.2 µM and 5.6 µM
